Data published in US7759337B2, “Phthalazine compounds and methods of use” (Amgen Inc., priority 2005, dated 2010).

What follows are molecules tested on production of TNF by monocytes activated with bacterial lipopolysaccharide (LPS) (assay: Lipopolysaccharide-activated monocyte TNF production assay). Conditions: Homo sapiens; whole blood monocyte assay (LPS induced TNF release).
Format: cell-based
Method: Test compounds were evaluated in vitro for the ability to inhibit the production of TNF by monocytes activated with bacterial lipopolysaccharide (LPS). Fresh residual source leukocytes (a byproduct of plateletpheresis) were obtained from a local blood bank, and peripheral blood mononuclear cells (PBMCs) were isolated by density gradient centrifugation on Ficol-Paque Plus (Pharmacia). PBMCs were suspended at 2×10^6/mL in DMEM supplemented to contain 2% FCS, 10 mM, 0.3 mg/mL […], 100 U/mL penicillin G and […] streptomycin sulfate (complete media). Cells were plated into Falcon flat bottom, 96 well culture plates (200 μL/well) and cultured overnight at 37° C. and 6% CO2. Non-adherent cells were removed by washing with 200 μl/well of fresh medium.
Test compounds were dissolved in […]. Compound stock solutions were prepared to an initial concentration of […]. Stocks were diluted initially to 20-200 μM in complete media. Nine two-fold serial dilutions of each compound were then prepared in complete medium.
One hundred microliters of each test compound dilution were added to microtiter wells containing adherent monocytes and 100 μL complete medium. Monocytes were cultured with test compounds for 60 min at which time 25 μL of complete medium containing 30 ng/mL lipopolysaccharide from E. coli K532 were added to each well. Cells were cultured an additional 4 hrs. Culture supernatants were then removed and TNF presence in the supernatants was quantified using an ELISA.
Flat bottom, 96 well Corning High Binding ELISA plates were coated overnight (4° C.) with 150 μL/well of 3 μg/mL murine anti-human TNF-α MAb (R&D Systems #MAB210). Wells were then blocked for 1 h at room temperature with 200 μL/well of CaCl2-free ELISA buffer supplemented to contain 20 mg/mL BSA (standard ELISA buffer: […], 150 mM NaCl, 2 mM CaCl2, 0.15 mM thimerosal, pH 7.4). Plates were washed and replenished with 100 μL of test supernatants (diluted 1:3) or standards. Standards consisted of eleven 1.5-fold serial dilutions from a stock of I ng/mL recombinant human TNF (R&D Systems). Plates were incubated at room temperature for 1 h on orbital shaker (300 rpm), washed and replenished with 100 μL/well of 0.5 μg/mL goat anti-human TNF-α (R&D systems #AB-210-NA) biotinylated at a 4:1 ratio. Plates were incubated for 40 min, washed and replenished with 100 μL/well of alkaline phosphatase-conjugated streptavidin (Jackson ImmunoResearch #016-050-084) at 0.02 μg/mL. Plates were incubated 30 min, washed and replenished with 200 μL/well of 1 mg/mL of p-nitrophenyl phosphate. After 30 min, plates were read at 405 nm on a Vmax plate reader.
Standard curve data were fit to a second order polynomial and unknown TNF-α concentrations determined from their OD by solving this equation for concentration. TNF concentrations were then plotted vs. test compound concentration using a second order polynomial. This equation was then used to calculate the concentration of test compounds causing a 50% reduction in TNF production.
`Fc1ccc(Oc2ccc3c(N4C[C@@H]5C[C@H]4CO5)nncc3c2)cc1` [Example 350, (1S,4S)-5-[6-(4-fluorophenoxy)phthalazin-1-yl]-2-oxa-5-azabicyclo[2.2.1]heptane] gave an IC50 of at most 5 µM.
In the case of `CNc1noc2c(-c3ccc4c(N5CCOC[C@H]5C)nncc4c3)c(C)ccc12` [Example 373, N,6-dimethyl-7-{1-[(3R)-3-methylmorpholin-4-yl]phthalazin-6-yl}-1,2-benzisoxazol-3-amine], the IC50 is reported as at most 5 µM.
Molecule `Cc1ccc(S(=O)(=O)NC2CC2)cc1-c1ccc2c(NC(C)C)nncc2c1` [Example 359, N-cyclopropyl-3-[1-(isopropylamino)phthalazin-6-yl]-4-methylbenzenesulfonamide] has an IC50 of at most 5 µM.
Molecule `Cc1ccc2c(NC(C)(C)C)noc2c1-c1ccc2c(N3CCOC[C@@H]3C)nncc2c1` [Example 381, N-(tert-butyl)-6-methyl-7-{1-[(3S)-3-methylmorpholin-4-yl]phthalazin-6-yl}-1,2-benzisoxazol-3-amine] has an IC50 of at most 5 µM.
`Cc1ccc(C(=O)NC2CC2)cc1-c1ccc2c(N3C[C@@H](C)O[C@@H](C)C3)nncc2c1` [Example 142, N-cyclopropyl-3-{1-[(2R,6S)-2,6-dimethylmorpholin-4-yl]phthalazin-6-yl}-4-methylbenzamide] was tested, and the IC50 was at most 5 µM.
`CNS(=O)(=O)c1ccc(C)c(-c2ccc3c(NC(C)C)nncc3c2)c1` [Example 358, 3-[1-(isopropylamino)phthalazin-6-yl]-N,4-dimethylbenzenesulfonamide] gave an IC50 of at most 5 µM.
`Cc1ccc(C(N)=O)cc1-c1ccc2c(N3CCNC(=O)C3)nncc2c1` [Example 116, 4-methyl-3-[1-(3-oxopiperazin-1-yl)phthalazin-6-yl]benzamide] gave an IC50 of at most 5 µM.
For `Cc1ccc(C(=O)NC2CC2)cc1-c1ccc2c(N(C)C)nncc2c1` [Example 187, N-cyclopropyl-3-[1-(dimethylamino)phthalazin-6-yl]-4-methylbenzamide], the IC50 was at most 5 µM.
With `O=C(O)Cc1ccc(-c2nncc3cc(Oc4ccc(F)cc4)ccc23)cc1` [Example 348, {4-[6-(4-fluorophenoxy)phthalazin-1-yl]phenyl}acetic acid] the IC50 was at most 5 µM.
`Cc1ccccc1-c1nncc2cc(Oc3ccc(F)cc3F)ccc12` [Example 345, 6-(2,4-difluorophenoxy)-1-(2-methylphenyl)phthalazine] gave an IC50 of at most 5 µM.
For `Cc1ccc(C(=O)NC2CC2)cc1-c1ccc2c(N3CCn4c(nnc4C(F)(F)F)C3)nncc2c1` [Example 104, N-cyclopropyl-4-methyl-3-(1-(3-(trifluoromethyl)-5,6-dihydro-[1,2,4]triazolo[4,3-a]pyrazin-7(8H)-yl)phthalazin-6-yl)benzamide], the IC50 was at most 5 µM.
In the case of `Cc1ccc(C(=O)NC2CC2)cc1-c1ccc2c(N3CCNCC3)nncc2c1` [Example 165, N-cyclopropyl-4-methyl-3-(1-piperazin-1-ylphthalazin-6-yl)benzamide], the IC50 is reported as at most 5 µM.
Molecule `COC[C@H](C)Nc1nncc2cc(-c3cc(C(=O)NC4CC4)ccc3C)ccc12` [Example 192, N-cyclopropyl-3-(1-{[(1S)-2-methoxy-1-methylethyl]amino}phthalazin-6-yl)-4-methylbenzamide] has an IC50 of at most 5 µM.
With `Cc1ccc(C(=O)NC2CC2)cc1-c1ccc2c(N3CC[C@@H](O)C3)nncc2c1` [Example 166, N-cyclopropyl-3-{1-[(3R)-3-hydroxypyrrolidin-1-yl]phthalazin-6-yl}-4-methylbenzamide] the IC50 was at most 5 µM.
`Cc1ccc(C(N)=O)cc1-c1ccc2c(-c3cc4ccccc4[nH]3)nncc2c1` [Example 216, 3-[1-(1H-indol-2-yl)phthalazin-6-yl]-4-methylbenzamide] was tested, and the IC50 was at most 5 µM.
For `NC(=O)c1ccc(F)c(-c2ccc3c(N4CCOCC4)nncc3c2)c1` [Example 177, 4-fluoro-3-(1-morpholin-4-ylphthalazin-6-yl)benzamide], the IC50 was at most 5 µM.
In the case of `Cc1ccc(C(=O)NC2CC2)cc1-c1ccc2c(N[C@@H](C)C(=O)OC(C)(C)C)nncc2c1` [Example 191, tert-butyl N-(6-{5-[(cyclopropylamino)carbonyl]-2-methylphenyl}phthalazin-1-yl)-L-alaninate], the IC50 is reported as at most 5 µM.
In the case of `Cc1ccc(C(N)=O)cc1-c1ccc2c(NCCO)nncc2c1` [Example 407, 3-{1-[(2-hydroxyethyl)amino]phthalazin-6-yl}-4-methylbenzamide], the IC50 is reported as at most 5 µM.
With `COc1ccc(-c2nncc3cc(-c4cc(C(N)=O)ccc4C)ccc23)c(Cl)c1` [Example 229, 3-[1-(2-chloro-4-methoxyphenyl)phthalazin-6-yl]-4-methylbenzamide] the IC50 was at most 5 µM.
`Cc1ccc(C(N)=O)cc1-c1ccc2c(-c3ccc(F)cc3C)nncc2c1` [Example 217, 3-[1-(4-fluoro-2-methylphenyl)phthalazin-6-yl]-4-methylbenzamide] gave an IC50 of at most 5 µM.
With `Cc1ccc(C(=O)NC2CC2)cc1-c1ccc2c(OC3CCCN(C)C3)nncc2c1` (stereo not shown) [Example 317, N-cyclopropyl-4-methyl-3-{1-[(1-methylpiperidin-3-yl)oxy]phthalazin-6-yl}benzamide] the IC50 was at most 5 µM.
`Cc1ccc(C(=O)NC2CC2)cc1-c1ccc2c(-c3ccc(S(N)(=O)=O)cc3C)nncc2c1` [Example 218, 3-{1-[4-(aminosulfonyl)-2-methylphenyl]phthalazin-6-yl}-N-cyclopropyl-4-methylbenzamide] gave an IC50 of at most 5 µM.
With `Cc1ccc(C(=O)NC2CC2)cc1-c1ccc2c(N3CC[C@H]4CCCC[C@H]4C3)nncc2c1` [Example 136, 3-{1-[(4aR,8aR)-octahydroisoquinolin-2(1H)-yl]phthalazin-6-yl}-N-cyclopropyl-4-methylbenzamide] the IC50 was at most 5 µM.
Molecule `Cc1ccc(C(=O)NC2CC2)cc1-c1ccc2c(N3CCC(C)(O)CC3)nncc2c1` [Example 152, N-cyclopropyl-3-[1-(4-hydroxy-4-methylpiperidin-1-yl)phthalazin-6-yl]-4-methylbenzamide] has an IC50 of at most 5 µM.
`CC[C@@H](C)Nc1nncc2cc(-c3cc(C(=O)NC4CC4)ccc3C)ccc12` [Example 314, N-cyclopropyl-4-methyl-3-(1-{[(1R)-1-methylpropyl]amino}phthalazin-6-yl)benzamide] was tested, and the IC50 was at most 5 µM.
Work on `Cc1ccc(S(N)(=O)=O)cc1-c1ccc2c(NC(C)C)nncc2c1` [Example 357, 3-[1-(isopropylamino)phthalazin-6-yl]-4-methylbenzenesulfonamide] yielded an IC50 of at most 5 µM.
With `Cc1ccc(C(=O)NC2CC2)cc1-c1ccc2c(N3CCc4c(O)n[nH]c4C3)nncc2c1` [Example 103, N-cyclopropyl-3-(1-(3-hydroxy-4,5-dihydro-1H-pyrazolo[3,4-c]pyridin-6(7H)-yl)phthalazin-6-yl)-4-methylbenzamide] the IC50 was at most 5 µM.
`Cc1ccc(C(N)=O)cc1-c1ccc2c(-c3ccc(OC(C)C)cc3C)nncc2c1` [Example 227, 3-[1-(4-isopropoxy-2-methylphenyl)phthalazin-6-yl]-4-methylbenzamide] showed an IC50 of at most 5 µM.
`Cc1ccc(C(=S)NC2CC2)cc1-c1ccc2c(N3CCOCC3)nncc2c1` [Example 109, N-Cyclopropyl-4-methyl-3-(1-morpholinophthalazin-6-yl)benzothioamide] was tested, and the IC50 was at most 5 µM.
In the case of `Cc1ccc(C(=O)NC2CC2)cc1-c1ccc2c(N(C)C(C)C)nncc2c1` [Example 290, N-cyclopropyl-3-{1-[isopropyl(methyl)amino]phthalazin-6-yl}-4-methylbenzamide], the IC50 is reported as at most 5 µM.
`Cc1ccc(C(N)=O)cc1-c1ccc2c(OC3CCCN(C)C3)nncc2c1` (stereo not shown) [Example 316, 4-methyl-3-{1-[(1-methylpiperidin-3-yl)oxy]phthalazin-6-yl}benzamide] showed an IC50 of at most 5 µM.
Molecule `Cc1ccc(C(N)=O)cc1-c1ccc2c(-c3cccnc3C)nncc2c1` [Example 255, 4-methyl-3-[1-(2-methylpyridin-3-yl)phthalazin-6-yl]benzamide] has an IC50 of at most 5 µM.
In the case of `CCOC(=O)N1CCN(c2nncc3cc(-c4cc(C(=O)NC5CC5)ccc4C)ccc23)[C@@H](C)C1` [Example 379, ethyl(3S)-4-(6-{5-[(cyclopropylamino)carbonyl]-2-methylphenyl}phthalazin-1-yl)-3-methylpiperazine-1-carboxylate], the IC50 is reported as at most 5 µM.
Molecule `Cc1ccc(C(=O)NC2CC2)cc1-c1ccc2c(C#N)nncc2c1` [Example 79, 3-(1-cyanophthalazin-6-yl)-N-cyclopropyl-4-methylbenzamide] has an IC50 of at most 5 µM.
